From US11541104B2, “Method for preventing or treating osteoporosis, characterized by administering teriparatide or salt thereof at a frequency of twice a week” (ASAHI KASEI PHARMA CORPORATION, priority 2018, dated 2023)

Experiments:
Type in all cases: in vivo, rabbit
[1] = system: six-month old female rabbits; assay: Bone tissue morphology of diaphysis of tibiae of rabbits
Method: (§1) To evaluate the influences of the administration frequencies of teriparatide on the bone metabolism and the bone tissue morphology, six-month old female rabbits were subcutaneously administered with an agent in a manner that a weekly dosage of teriparatide was adjusted to 140 μg/kg at a frequency of once a week, twice a week or seven times a week over 4 weeks, or with a control drug without containing teriparatide at a frequency of seven times a week over 4 weeks (Table 2-54). Also, the bone mineral density and the bone strength of the tibiae were measured. The teriparatide solution which was administered was appropriately prepared by dissolving teriparatide acetate in a water for injection, filtering the solution, filling the filtrate in a vial, freeze-drying to give a preparation, and dissolving the preparation in a physiological saline upon use.

[2] = system: six-month old female rabbits; assay: Bone strength of tibiae of rabbits, three-point bending strength; details: for Maximum load, bone strength of tibiae: 140 μg/kg per week, subcutaneous, 4 weeks; for Maximum load, three-point bending strength of the tibiae: versus control group
Method: as §1
Three-point bending strength of the tibiae collected after the end of the administration period was measured.

[3] = system: six-month old female rabbits; assay: Bone mineral densities of tibiae of rabbits (Working Example 2); details: 4 weeks; for Bone mineral densities in proximal part (1/5 site) of the tibiae: 140 μg/kg per week; for Bone mineral densities in the proximal part (1/5 site) of the tibiae: weekly dosage 140 μg/kg
Method: as §1
The bone mineral densities of the tibiae were analyzed in divided regions.

[4] = group administered seven times a week
[5] = group administered twice a week

CC[C@H](C)[C@H](NC(=O)[C@H](CCC(=O)O)NC(=O)[C@H](CO)NC(=O)[C@@H](NC(=O)[C@@H](N)CO)C(C)C)C(=O)N[C@@H](CCC(N)=O)C(=O)N[C@@H](CC(C)C)C(=O)N[C@@H](CCSC)C(=O)N[C@@H](Cc1cnc[nH]1)C(=O)N[C@@H](CC(N)=O)C(=O)N[C@@H](CC(C)C)C(=O)NCC(=O)N[C@@H](CCCCN)C(=O)N[C@@H](Cc1cnc[nH]1)C(=O)N[C@@H](CC(C)C)C(=O)N[C@@H](CC(N)=O)C(=O)N[C@@H](CO)C(=O)N[C@@H](CCSC)C(=O)N[C@@H](CCC(=O)O)C(=O)N[C@@H](CCCN=C(N)N)C(=O)N[C@H](C(=O)N[C@@H](CCC(=O)O)C(=O)N[C@@H](Cc1c[nH]c2ccccc12)C(=O)N[C@@H](CC(C)C)C(=O)N[C@@H](CCCN=C(N)N)C(=O)N[C@@H](CCCCN)C(=O)N[C@@H](CCCCN)C(=O)N[C@@H](CC(C)C)C(=O)N[C@@H](CCC(N)=O)C(=O)N[C@@H](CC(=O)O)C(=O)N[C@H](C(=O)N[C@@H](Cc1cnc[nH]1)C(=O)N[C@@H](CC(N)=O)C(=O)N[C@@H](Cc1ccccc1)C(=O)O)C(C)C)C(C)C [teriparatide]
Bone tissue morphology of diaphysis of tibiae ([1]; group administered once a week): none of these findings were observed
Bone tissue morphology of diaphysis of tibiae [1, 4]: formation of trabecular bones on the endocortical surfaces, a large number of intracortical voids (increase of cortical porosity), and disorderedness in a lamellar structure were observed
Bone tissue morphology of diaphysis of tibiae [1, 5]: none of these findings were observed
Maximum load, bone strength of tibiae ([2]; Group administered once a week): 583.81 N
Maximum load, bone strength of tibiae ([2]; Group administered seven times a week): 656.09 N
Maximum load, bone strength of tibiae ([2]; Group administered twice a week): 624.41 N
Maximum load, three-point bending strength of the tibiae [2, 4]: higher values
Maximum load, three-point bending strength of the tibiae [2, 5]: higher values
Bone mineral densities in proximal part (1/5 site) of the tibiae ([3]; Group administered once a week, subcutaneous): 272.5 ± 13.6 mg/cm^2
Bone mineral densities in proximal part (1/5 site) of the tibiae ([3]; Group administered twice a week, subcutaneous): 278.8 ±9.8 mg/cm^2
Bone mineral densities in the proximal part (1/5 site) of the tibiae [3, 5]: higher value than that of the group administered once a week
Bone mineral densities in the proximal part (1/5 site) of the tibiae ([3]; subcutaneous, as compared to control group): remarkably increased
